{"source": "paper PMC3446820", "about": "(Journal of medicinal chemistry, 2012)", "key": {"[1]": {"settings": "human liver microsomes; ref Gujjar et al. [29]; cited from earlier work"}, "[2]": {"system": "P. berghei", "settings": "mice, oral dosing; ref [29]; cited from earlier work"}, "[3]": {"system": "P. falciparum 3D7 cells", "settings": "read-out: EC50 (μM) Pf3D7; clone 3D7; ref [27],[29]; cited from earlier work"}, "[4]": {"target": "hDHODH (Homo sapiens, UniProt Q02127)", "sequence (Q02127 whole entry)": "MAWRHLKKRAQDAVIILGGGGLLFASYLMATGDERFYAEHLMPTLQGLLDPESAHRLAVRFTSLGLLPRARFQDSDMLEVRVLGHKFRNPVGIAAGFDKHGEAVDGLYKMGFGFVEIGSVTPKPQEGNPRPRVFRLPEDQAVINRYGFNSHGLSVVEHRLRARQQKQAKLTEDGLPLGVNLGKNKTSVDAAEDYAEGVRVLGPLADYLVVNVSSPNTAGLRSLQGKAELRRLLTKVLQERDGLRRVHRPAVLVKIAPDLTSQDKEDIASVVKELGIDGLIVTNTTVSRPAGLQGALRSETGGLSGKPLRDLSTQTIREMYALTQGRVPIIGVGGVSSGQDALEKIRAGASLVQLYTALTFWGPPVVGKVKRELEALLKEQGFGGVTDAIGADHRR", "settings": "cited from earlier work"}, "[5]": {"target": "T1, PfDHODH (Plasmodium falciparum, UniProt Q08210)", "T1 sequence (Q08210 24-569)": "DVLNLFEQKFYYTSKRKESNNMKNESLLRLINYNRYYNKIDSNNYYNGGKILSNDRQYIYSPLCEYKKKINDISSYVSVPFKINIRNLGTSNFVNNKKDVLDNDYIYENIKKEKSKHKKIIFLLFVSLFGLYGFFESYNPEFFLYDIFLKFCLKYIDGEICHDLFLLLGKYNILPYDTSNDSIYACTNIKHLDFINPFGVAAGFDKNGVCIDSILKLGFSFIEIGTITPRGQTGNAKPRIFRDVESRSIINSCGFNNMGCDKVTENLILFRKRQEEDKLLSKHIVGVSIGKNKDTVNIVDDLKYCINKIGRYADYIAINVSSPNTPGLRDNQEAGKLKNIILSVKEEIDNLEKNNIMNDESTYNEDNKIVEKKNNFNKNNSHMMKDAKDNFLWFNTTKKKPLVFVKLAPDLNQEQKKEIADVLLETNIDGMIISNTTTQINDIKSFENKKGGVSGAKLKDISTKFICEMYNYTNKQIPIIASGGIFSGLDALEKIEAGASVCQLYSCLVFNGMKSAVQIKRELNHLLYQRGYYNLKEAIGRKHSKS", "test": "biochemical", "format": "biochemical", "settings": "for fold less potent against PfDHODH than the comparable triazolopyrimidine 1: reduction in binding affinity/activity relative to 1"}, "[6]": {"target": "PbDHODH (Plasmodium berghei, UniProt A0A509AEH5)", "sequence (A0A509AEH5 132-517 limits assumed)": "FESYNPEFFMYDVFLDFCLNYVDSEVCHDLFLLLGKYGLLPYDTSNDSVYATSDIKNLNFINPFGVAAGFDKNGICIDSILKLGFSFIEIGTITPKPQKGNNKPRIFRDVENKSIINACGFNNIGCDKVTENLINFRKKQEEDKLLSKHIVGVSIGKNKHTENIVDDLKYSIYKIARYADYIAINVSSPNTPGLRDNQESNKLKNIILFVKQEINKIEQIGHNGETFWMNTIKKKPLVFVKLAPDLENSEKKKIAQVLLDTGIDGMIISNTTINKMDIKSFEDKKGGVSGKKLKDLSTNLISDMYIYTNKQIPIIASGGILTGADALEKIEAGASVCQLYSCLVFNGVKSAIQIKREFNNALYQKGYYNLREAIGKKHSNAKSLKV", "test": "PbDHODH steady-state colorimetric DCIP enzyme assay", "format": "biochemical", "settings": "relative to 2"}, "[7]": {"test": "In vitro metabolic stability in human liver microsomes", "format": "in vitro ADME"}, "[8]": {"test": "In vitro metabolic stability in mouse liver microsomes", "format": "in vitro ADME"}, "[9]": {"test": "Mouse pharmacokinetics after single oral dose", "format": "in vivo", "settings": "mice"}, "[10]": {"system": "P. berghei", "test": "P. berghei mouse in vivo efficacy model", "parameters": "species or system Plasmodium berghei", "settings": "mice"}}, "note": "Where two headings read alike, the source gives them in different places."}
{"smiles": "Cc1cc(Nc2ccc(C(F)(F)F)cc2)n2ncnc2n1", "note": "[Compound 2, 5-methyl-N-(4-(trifluoromethyl)phenyl)-[1,2,4]triazolo[1,5-a]pyrimidin-7-amine]", "values": [{"measurement": "Predicted EH", "setting": "[1]", "result": 0.29}, {"measurement": "in vivo efficacy in the P. berghei model (in words)", "setting": "[2]", "result": "able to suppress parasitemia"}]}
{"smiles": "Cc1cc(Nc2ccc3ccccc3c2)n2ncnc2n1", "note": "[Compound 1, (5-methyl-[1,2,4]triazolo[1,5-a]pyrimidin-7-yl)naphthalene-2-ylamine]", "values": [{"measurement": "EC50", "setting": "[3]", "result": 0.076, "unit": "µM"}, {"measurement": "in vivo efficacy in the P. berghei model (in words)", "setting": "[2]", "result": "no anti-parasite activity"}, {"measurement": "IC50", "setting": "[4]; read-out: IC50 (μM) hDHODH, ref [27],[29]", "result": "> 100", "unit": "µM"}, {"measurement": "activity against human DHODH (in words)", "setting": "[4]; ref [26]–[28]", "result": "without inhibiting human DHODH"}]}
{"smiles": "Cc1nc(Nc2ccc3ncccc3c2)c2nc[nH]c2n1", "note": "[Compound 14, N-(2-Methyl-9H-purin-6-yl)quinolin-6-amine]", "values": [{"measurement": "IC50", "setting": "[5]", "result": "> 25", "unit": "µM"}]}
{"smiles": "Cc1cc(Nc2ccc3ccccc3c2)n2ncnc2c1", "note": "[Compound 7, 7-Methyl-N-(naphthalen-2-yl)-[1,2,4]triazolo[1,5-a]pyridin-5-amine]", "values": [{"measurement": "fold less potent against PfDHODH than the comparable triazolopyrimidine 1", "setting": "[5]", "result": 100, "unit": "fold"}]}
{"smiles": "Cc1cc(Nc2ccc3ccccc3c2)c2nncn2n1", "note": "[Compound 11, 6-Methyl-N-(naphthalen-2-yl)-[1,2,4]triazolo[4,3-b]pyridazin-8-amine]", "values": [{"measurement": "IC50", "setting": "[5]", "result": "> 50", "unit": "µM"}, {"measurement": "PfDHODH activity (in words)", "setting": "[5]", "result": "inactivated"}]}
{"smiles": "Cc1cc(Nc2ccc3ccccc3c2)n2nccc2n1", "note": "[Compound 8, 5-Methyl-N-(naphthalen-2-yl)pyrazolo[1,5-a]pyrimidin-7-amine]", "values": [{"measurement": "fold less potent against PfDHODH than the comparable triazolopyrimidine 1", "setting": "[5]", "result": "~ 8.5 fold"}]}
{"smiles": "Cc1cc(NC(=O)c2ccccc2)n2ncnc2n1", "note": "[Compound 4, N-(5-methyl-[1,2,4]triazolo[1,5-a]pyrimidin-7-yl)benzamide]", "values": [{"measurement": "IC50", "setting": "[5]", "result": "> 100", "unit": "µM"}, {"measurement": "PfDHODH activity (in words)", "setting": "[5]", "result": "loss of activity"}]}
{"smiles": "Cc1nc(Nc2n[nH]cc2C#N)c2nc[nH]c2n1", "note": "[Compound 15, 3-(2-Methyl-9H-purin-6-ylamino)-1H-pyrazole-4-carbonitrile]", "values": [{"measurement": "IC50", "setting": "[5]", "result": "> 100", "unit": "µM"}, {"measurement": "PfDHODH activity (in words)", "setting": "[5]", "result": "inactive"}]}
{"smiles": "Cc1cc(Nc2ccc(C(F)(F)F)cc2)n2ccnc2n1", "note": "[Compound 16, 7-Methyl-N-(4-(trifluoromethyl)phenyl)imidazo[1,2-a]pyrimidin-5-amine]", "values": [{"measurement": "fold more potent against PfDHODH than the equivalent triazolopyrimidine 2", "setting": "[5]; relative to 2", "result": 4, "unit": "fold"}, {"measurement": "fold better potency against PbDHODH than 2", "setting": "[6]", "result": 2, "unit": "fold"}, {"measurement": "Putative metabolites", "setting": "[7]; human liver microsomes", "result": "None detected"}, {"measurement": "Predicted EH", "setting": "[7]; human liver microsomes, predicted in vivo hepatic extraction ratio", "result": 0.21}, {"measurement": "microsomal CLint at 1 μM", "setting": "[7]; human, pooled human liver microsomes", "result": 4.7, "unit": "µL/min/mg"}, {"measurement": "Putative metabolites", "setting": "[8]; mouse liver microsomes", "result": "None detected"}, {"measurement": "Predicted EH", "setting": "[8]; mouse liver microsomes, predicted in vivo hepatic extraction ratio", "result": 0.59}, {"measurement": "in vitro clearance class", "setting": "[8]; mouse microsomes", "result": "intermediate"}, {"measurement": "microsomal CLint at 1 μM", "setting": "[8]; mouse, pooled mouse liver microsomes", "result": 34, "unit": "µL/min/mg"}, {"measurement": "adverse reactions following oral administration", "setting": "[9]; 10 mg/kg oral", "result": "No adverse reactions were observed"}, {"measurement": "peak plasma concentrations", "setting": "[9]; single oral dose 10 mg/kg", "result": 3.9, "unit": "µM"}, {"measurement": "time plasma levels maintained above 1 μM", "setting": "[9]; single oral dose 10 mg/kg", "result": "about 4 h"}, {"measurement": "in vivo efficacy in the P. berghei model (in words)", "setting": "[10]", "result": "suppresses parasites in vivo"}]}
{"smiles": "Cc1nc(Nc2ccc3ccccc3c2)c2cn[nH]c2n1", "note": "[Compound 10, 6-Methyl-N-(naphthalen-2-yl)-1H-pyrazolo[3,4-d]pyrimidin-4-amine]", "values": [{"measurement": "IC50", "setting": "[5]", "result": "> 100", "unit": "µM"}, {"measurement": "PfDHODH activity (in words)", "setting": "[5]", "result": "inactivated"}]}
{"smiles": "Cc1nc(Nc2ccc3ccccc3c2)c2nc[nH]c2n1", "note": "[Compound 9, 2-Methyl-N-(naphthalen-2-yl)-9H-purin-6-amine]", "values": [{"measurement": "fold less potent against PfDHODH than the comparable triazolopyrimidine 1", "setting": "[5]", "result": "~ 9 fold"}]}
{"smiles": "Cc1cc(Nc2ccc3ccccc3c2)n2ccnc2n1", "note": "[Compound 6, 7-Methyl-N-(naphthalen-2-yl)imidazo[1,2-a]pyrimidin-5-amine]", "values": [{"measurement": "fold less potent against PfDHODH than the comparable triazolopyrimidine 1", "setting": "[5]", "result": 3, "unit": "fold"}]}
{"smiles": "Cc1cc(NC(=O)c2ccc(C(F)(F)F)cc2)n2ncnc2n1", "note": "[Compound 5]", "values": [{"measurement": "IC50", "setting": "[5]", "result": "> 100", "unit": "µM"}, {"measurement": "PfDHODH activity (in words)", "setting": "[5]", "result": "loss of activity"}]}
